According to US20090028840A1, “Compositions For Preventing Or Treating Arthritis Comprising Lactic Acid Bacteria and Collangen As Active Ingredients” (Gwangju Institute of Sciecne and Technology, priority 2005, published 2009):

How the values were obtained:
[1] = tested on: collagen-induced arthritis (CIA); experiment: Comparative tests for treatment efficacy in collagen-induced arthritis (CIA) rats; format: in vivo, Lewis rat; settings: acute phase (until 35 days after immunization), FIGS. 3 and 4
[2] = tested on: infiltration of lymphocytes into joint tissues; experiment: Histological analysis of ankle joints of CIA rats (hematoxylin and eosin); format: in vivo, rat; settings: 35 days after immunization, FIG. 5
Text: Joints dissected were washed with PBS and fixed for 24 hr in 4% paraformaldehyde, followed by decalcification for 2-3 days in decalcification solution (Merck). The decalcified joint tissues were embedded in paraffin, sectioned to […], deparaffinized, stained with hematoxylin and eosin, and observed under microscope. A basic dye, hematoxylin binds to nucleus containing negative-charged DNA and RNA molecules and an acidic dye, eosin binds to cytoplasmic proteins and collagen with positive charge.

CN(Cc1cnc2nc(N)nc(N)c2n1)c1ccc(C(=O)N[C@@H](CCC(=O)O)C(=O)O)cc1 [MTX, methotrexate]
treatment efficacy on arthritis during acute phase [1]: better until acute phase (until 35 days after immunization) than the present composition
infiltration of lymphocytes (immune cells) into joints [2]: little or no occurrence of the infiltration of lymphocytes

Lactobacillus casei [lactic acid bacteria]
treatment efficacy on arthritis during acute phase [1]: low
